From patent publication US11844771B2, “Methods of treating acute respiratory distress syndrome using colchicine” (INSTITUT DE C[…] MONTREAL, priority 2021, dated 2023)
Marks after values point to notes of the source that are not given here.

Legend:
[1] = system: blood leukocytes; assay: In vitro LPS challenge of blood leukocytes from treated rats (CD11b flow cytometry); type: in vivo; conditions: rat whole blood at sacrifice, LPS 500 ng/mL in vitro, 30 minutes
Experimental: (§1) Animal model and colchicine administration. Male Wistar rats weighing 250-300 g were purchased from Charles River, St. Constant, Québec. They were divided in three groups: Sham+placebo (n=8), oleic acid+placebo (n=8) and oleic acid+colchicine (n=8). Oleic acid (150 mg/kg in 0.3 cc) was prepared daily as a mixture with 0.1% bovine serum albumin (BSA) dissolved in distilled water, stored and protected from light at room temperature. Colchicine (1 mg/kg) or distilled water (placebo) was administered by daily gavage (in a volume up to 2 ml/kg) for three days before the induction of the ALI model. On the beginning of the fourth day a last forth dose of colchicine or placebo was administered and rats immediately injected via a jugular vein cannula with oleic acid or with 0.1% BSA. There was no death in the sham group. There was one death in the oleic acid+placebo group 3 hours after injection of oleic acid and prior to any measurement.
In vitro LPS challenge of blood leukocytes. Whole blood samples collected on EDTA-coated tubes were incubated, or not, with LPS (500 ng/mL) for 30 minutes at 37° C. […] Data were analyzed on Diva software version 8.0.1 (BD Biosciences).

[2] = system: oleic acid-induced ALI; assay: Oleic acid-induced ALI rat model: serum cytokine quantification; type: in vivo; conditions: 4 hours after oleic acid
Experimental: as §1
(§2) There was one surgical death in oleic acid+colchicine treatment by laceration of the jugular vein, prior to injection of oleic acid. Oleic acid was administered under ketamine/xylazine anesthesia by slow bolus injection over 30 seconds and the catheter was flushed with 0.3 ml of 0.1% BSA before and after injection. Four hours later, the animals were studied. Conscious unrestrained respiratory parameters were obtained by whole body plethysmography (Emka technologies). Rats were then anesthetized with 2.5% isoflurance and 100% oxygen (1 L/min) administered with a nose cone/face mask for a duration of 5 minutes before terminal exsanguination. 2 ml of arterial blood was collected through the thoracic aorta into a syringe containing lyophilized heparin for arterial blood gas assessment. The remaining blood was collected into EDTA Lavendar tubes for complete blood count and flow cytometry. Cytokines measurements were assessed with serum isolated with serum clot activator tubes.
Serum cytokine quantification. Quantitative determination of serum IFN-γ, IL-1β, IL-4, IL-5, IL-6, KC/GRO, IL-10, IL-13, and TNF-α was done using the electrochemiluminescence-based Meso Scale Discovery (MSD) platform (Rockville, Md., USA). Proteins levels were measured in a multiplex assay using the V-PLEX Proinflammatory Panel 2 Rat kit (MSD). Samples were diluted 1:5 in proprietary buffer (MSD) and measured. Data were acquired using a MESO QuickPlex SQ 120 plate reader (MSD) and protein concentrations were determined using the MSD Discovery Workbench 4.0 analysis software. All values reported are between the lower and the upper limits of quantification of the kit. Quantitative determination of serum Cit-H3 was measured by a commercially available ELISA kit (Cayman Chemical, 501620, Ann Arbor, Mich., USA).

[3] = system: oleic acid-induced ALI; assay: Oleic acid-induced ALI rat model: conscious respiratory parameters by whole body plethysmography; type: in vivo; conditions: OA + colchicine 1 mg/kg gavage, 4 hours after oleic acid, mean ± SEM
Experimental: as §1
There was one surgical death in oleic acid+colchicine treatment by laceration of the jugular vein, prior to injection of oleic acid. Oleic acid was administered under ketamine/xylazine anesthesia by slow bolus injection over 30 seconds and the catheter was flushed with 0.3 ml of 0.1% BSA before and after injection. Four hours later, the animals were studied. […] Cytokines measurements were assessed with serum isolated with serum clot activator tubes.

[4] = system: blood leukocytes; assay: Leukocyte immunophenotyping of whole blood by flow cytometry; type: in vivo, rat; conditions: 4 hours after oleic acid
Experimental: as §1
Leukocyte immunophenotyping. Using reverse pipetting, 100 μl of whole blood collected on EDTA-coated tubes were incubated with anti-CD32 to prevent FC-mediated non-specific binding according to the manufacturer's instructions. The panel of antibodies as well as the gating strategy were inspired by Barnett-Vanes and al., PLoS One 2016; 11:e0142520.
Briefly, a panel of 11 antibodies (Table 1) was used to identify the neutrophils (CD45^+/SSChi/His48^+), the monocytes (CD45^+/SSC^lo/His48 ^hi or lo/CD43^hi or lo), the B lymphocytes (CD45^+/SSC^lo/CD45R^−B220^+), the T lymphocytes (CD45^+/SSC^lo/CD3^+/CD4^+ or CD8^+), and the natural killer cells (CD45^+/SSC^lo/CD161a^+). The whole blood samples were incubated with the antibodies for 20 minutes at room temperature and the BD Pharm Lyse solution was then added for 10 minutes to lyse the erythrocytes. Samples were stored at 4° C. until analysis by flow cytometry (LSRII BD Biosciences). Accucount (Spherotech) was added to establish a cell count per μl of blood. Data were analyzed on Diva software version 8.0.1 (BD Biosciences).

[5] = system: oleic acid-induced ALI; assay: Lung tissue mRNA expression of 27 markers of inflammation and injury by RT-qPCR; type: in vivo; conditions: rat lung, 4 hours after oleic acid; colchicine versus OA control
Experimental: Animal model and colchicine administration. Male Wistar rats weighing 250-300 g were purchased from Charles River, St. Constant, Québec. They were divided in three groups: Sham+placebo (n=8), oleic acid+placebo (n=8) and oleic acid+colchicine (n=8). Oleic acid (150 mg/kg in 0.3 cc) was prepared daily as a mixture with 0.1% bovine serum albumin (BSA) dissolved in distilled water, stored and protected from light at room temperature. Colchicine (1 mg/kg) or distilled water (placebo) was administered by daily gavage (in a volume up to 2 ml/kg) for three days before the induction of the ALI model. […]
(§3) The lungs were excised for analysis: the left lung was cannulated and perfusion-fixed with 10% buffered formalin for histology and immunohistochemistry. […] Pulmonary edema was measured from the ratio of total divided by dry weight of the right lung. Total weight, including water, was measured and lung tissue was dried in an oven at 60° C. for 5 days and reweighed as dry weight.
Tissue homogenization, RNA extraction, RT-PCR, and real-time PCR. […] RNA integrity and quantity were assessed using a 2100 Bioanalyzer Instrument (Agilent, Santa Clara, Calif.). […] The geometric mean of housekeeping genes ACTB, GAPDH, and XBP1 was used as an internal control to normalize the variability in expression levels which were analyzed using the 2^−ΔΔCT method. […]

[6] = system: oleic acid-induced ALI; assay: Oleic acid-induced ALI rat model: blood cell counts and biochemistry; type: in vivo; conditions: OA + colchicine 1 mg/kg gavage, 4 hours after oleic acid, mean ± SEM
Experimental: as §1, §2

[7] = system: oleic acid-induced ALI; assay: Oleic acid-induced ALI rat model: lung edema and arterial blood gas; type: in vivo
Experimental: as §1
as §2, with “2 ml of arterial blood was collected through the thoracic aorta into a syringe containing lyophilized heparin for arterial blood gas assessment. The remaining blood was collected into EDTA Lavendar tubes for complete blood count and flow cytometry.” left out
as §3

[8] = system: oleic acid-induced ALI; assay: Oleic acid-induced ALI rat model: lung histology and immunohistology (HPS, MPO, Cit-H3); type: in vivo; conditions: colchicine 1 mg/kg gavage, 4 hours after oleic acid
Experimental: as §1
Lung histology and immunohistology. All histological and immunohistological procedures were performed by the same person blinded to treatment assignment. The left lung was cannulated and perfused with 10% formalin PBS-buffered solution and fixed for 5 days. Tissues were dehydrated by incubating in a series of solutions with an increased ethanol content (70, 95, and 100%), followed by xylene, and embedded in paraffin. The specimens were cut into 6-μm sections, mounted on charged slides and processed with hematoxylin phloxine saffron (HPS) staining.
Immunohistological procedures were initiated by incubating the slides in citrate antigen retrieval (pH 6.0) and endogenous peroxidase blocking (3% hydrogen peroxide). Sections were then blocked by incubating in PBS containing 10% normal goat serum (same species as secondary antibody) for 60 minutes. Slides were incubated with a rabbit polyclonal anti-myeloperoxidase (MPO, Pa5-16672; ThermoFisher, MA USA) for neutrophil detection, with a rabbit polyclonal anti-histone H3 citrulline R2+R8+R17, (Cit-H3, ab5103; ABCAM, Cambridge, United Kingdom) for NETosis and primary antibodies were omitted for negative controls. After washing, sections were incubated with a biotinylated secondary antibody (Vector Laboratories, Burlingame, Calif.) for 30 minutes, washed, then incubated with avidin-biotin complex (ABC kit) and visualized using diaminobenzidine substrate (Vector Laboratories) (27-29).
The HPS slides were scanned to get a picture of the whole left lung (Super coolscan 5000; Nikon, Tokyo Japan). Using a brightfield microscope (BX45, Olympus, Richmond Hill, ON, Canada), images were acquired under 200× magnification on the most damaged/altered regions, acquiring 5 fields per slide for the HPS staining and 10 fields per slide for IHC (MPO and Cit-H3) staining. For the HPS staining, the following analyses were performed: 1) thickness of alveolar membranes, 2) percentage (%) of altered lung tissue, and 3) injury score of the lungs.
To assess the thickness of alveolar membranes, 20 measurements per field were performed (corresponding to 100 measurements per slide) and were expressed as the mean thickness (μm) of the alveolar membranes. A morphometric analysis has been performed to assess the percentage of altered lung tissue over total lung area (excluding trachea, major bronchi, and blood vessels >700 μm diameter). To evaluate lung injury, we used an adapted version of the standardized histology score from the American Thoracic Society Documents (30). […]

[9] = colchicine 1 mg/kg gavage, 4 hours after oleic acid, versus OA control
[10] = rat left lung, HPS staining, mean±SEM

SMILES: COc1cc2c(c(OC)c1OC)-c1ccc(OC)c(=O)cc1[C@@H](NC(C)=O)CC2 [colchicine]
- response to LPS stimulation (cell surface CD11b MFI) in leukocytes and granulocytes [1]: restored the normal response
- other cytokines measured: Cit-H3, INF-γ, IL-10, IL-13, IL-4 and IL-5 [2]: no change
- serum IL-6 level ([2]; colchicine versus OA control): trend towards reduced
- serum KC/GRO ([2]; colchicine versus OA control): non-significantly reduced
- serum TNF-α ([2]; colchicine versus OA control): non-significantly reduced
- Peek expiratory flow [3]: 13.19 ± 1.41
- Peek inspiratory flow [3]: 17.75 ± 2.72 mL/s
- cell surface CD4 and CD8 on respective lymphocyte sub-populations ([4]; rat blood): normalized
- lymphocytes counts on flow cytometry ([4]; rat blood): no change
- neutrophil count on flow cytometry ([4]; rat blood): increase in neutrophils that was significant
- His48 fluorescence of neutrophils ([4]; unstimulated rat blood): normalized
- lung tissue mRNA expression of 27 genes involved in inflammatory responses and injury [5]: no individual statistically significant effect
- Calcium ([6]; corrected for pH): 1.40 ± 0.01 mmol/L
- Bicarbonate [6]: 27.6 ± 0.8 mmol/L
- Lactate [6]: 2.4 ± 0.53 mmol/L
- Leukocytes [6]: 4.90 ± 0.68** 10^9/L
- Neutrophils [6]: 2.71 ± 0.36** 10^9/L
- PaO2 (equivalent to PaO2/FiO2) ([7]; colchicine 1 mg/kg daily gavage, 4 doses before oleic acid 150 mg/kg iv, 4 hours later, 100% FiO2, mean±SEM): 246±45 mmHg
- lung edema (pulmonary edema, total/dry lung weight ratio) [7, 9]: reduced
- respiratory acidosis [7, 9]: reduced
- relative reduction of histological lung injury (injured area) versus oleic acid ALI group ([8]; rat left lung, HPS staining): 61%
- Mean alveolar wall thickness [8, 10]: 7.8±1.1 μm
- lung injury score (maximum score of 70) [8, 10]: 28.7±5.0
- proportion of injured area (altered lung tissue over total lung area) [8, 10]: 9.6±3.1%
- NETosis (Cit-H3 immunostaining intensity), increase over basal level ([8]; rat lung, oleic acid alone 63%): 35%
